Results taken from patent US6908935B2, “Calcium receptor modulating agents” (Amgen Inc., priority 2002, dated 2005).

Molecular target: T1, human parathyroid cell Ca^2+ receptor (hPCaR) (Homo sapiens, UniProt P41180)
T1 construct: expressed in transfected cells
T1 sequence (P41180 20-1078): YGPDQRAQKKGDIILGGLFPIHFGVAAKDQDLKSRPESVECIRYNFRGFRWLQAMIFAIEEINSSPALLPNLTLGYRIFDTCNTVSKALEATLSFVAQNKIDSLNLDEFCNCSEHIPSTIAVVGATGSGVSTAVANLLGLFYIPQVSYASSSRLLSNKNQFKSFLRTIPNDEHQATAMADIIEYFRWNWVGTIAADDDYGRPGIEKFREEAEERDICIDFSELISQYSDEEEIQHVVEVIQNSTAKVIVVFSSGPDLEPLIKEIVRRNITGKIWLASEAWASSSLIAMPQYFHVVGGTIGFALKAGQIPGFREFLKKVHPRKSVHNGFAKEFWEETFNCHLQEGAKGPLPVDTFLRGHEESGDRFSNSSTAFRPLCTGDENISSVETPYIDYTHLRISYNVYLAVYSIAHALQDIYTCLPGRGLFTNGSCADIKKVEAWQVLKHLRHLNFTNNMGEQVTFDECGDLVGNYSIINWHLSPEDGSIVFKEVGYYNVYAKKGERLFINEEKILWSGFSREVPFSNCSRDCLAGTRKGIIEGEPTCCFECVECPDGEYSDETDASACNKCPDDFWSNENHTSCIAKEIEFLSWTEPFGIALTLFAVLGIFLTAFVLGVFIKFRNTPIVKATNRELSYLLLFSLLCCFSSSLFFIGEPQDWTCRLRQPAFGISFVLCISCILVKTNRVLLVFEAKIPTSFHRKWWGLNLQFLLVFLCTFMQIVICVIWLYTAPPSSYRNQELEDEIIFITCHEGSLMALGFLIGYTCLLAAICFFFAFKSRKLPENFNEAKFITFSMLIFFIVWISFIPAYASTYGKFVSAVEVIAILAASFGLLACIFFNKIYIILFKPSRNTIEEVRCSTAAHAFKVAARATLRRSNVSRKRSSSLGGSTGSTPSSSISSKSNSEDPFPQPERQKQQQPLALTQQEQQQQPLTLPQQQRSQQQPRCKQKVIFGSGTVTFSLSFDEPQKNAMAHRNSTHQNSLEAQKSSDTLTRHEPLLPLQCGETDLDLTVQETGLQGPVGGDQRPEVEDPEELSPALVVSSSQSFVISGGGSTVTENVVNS
Test: [Ca2+]i measurement with fluo-3 in HEK 293 4.0-7 cells stably transfected with hPCaR
Type: cell-based
Conditions: fluo-3 fluorescence (485/530 nm), effect on [Ca^2+]i
Description: The activities of the compounds of the present invention on calcium receptors were measured. In one embodiment, the measurement was performed in accordance with the method described in Example 4 of Nemeth et al., PCT/US95/13704 (International Publication No. WO96/12697) herein incorporated by reference.
A 4.0-kb NotI-HindIII fragment of the human parathyroid cell Ca^2+ receptor (hPCaR) cDNA was subcloned into the mammalian expression vector pCEP4 (Invitrogen) containing the hygromycin-resistant gene as a selectable marker. This plasmid was transfected into HEK 293 cells by calcium phosphate precipitation. Transfected cells were grown in Dulbecco's modified Eagle's medium containing 10% fetal bovine serum and hygromycin (200 μg/mL). Hygromycin-resistant colonies were subcloned and assayed for hPCaR mRNA by solution hybridization using a ^32P-labeled RNA probe complementary to the (4.0 kb) hPCaR sequence (Garrett, et al., J. Biol. Chem. 270, 12919-12925 (1995)). Clone 7 was used to assess the effects of compounds on [Ca^2+]i. This stably transfected cell line is termed HEK 293 4.0-7. For measurements of [Ca^2+]i, the cells were recovered from tissue culture flasks by brief treatment with 0.02% EDTA and then washed and resuspended in PCB containing 1 mM CaCl2 and 0.1% Bovine Serum Albumin (“BSA”). The cells were loaded with fluo-3 by incubation for 30 min at 37° C., with parathyroid cell buffer (126 mM NaCl, 4 mM KCl, 1 mM MgSO4, 0.7 mM K2HPO/KH2PO4, 20 mM HEPES.NaOH (pH 7.45)) containing 0.5% BSA in lmM CaCl2 and 2 μM fluo-3 acetoxymethyl ester. The cells were subsequently washed, each test compound was added to the cells and the fluorescence was recorded by using excitation and emission wavelengths of 485 and 530 nm, respectively.

| Compound | EC50 [µM] |
| --- | --- |
| COc1ccc([C@@H](C)NCc2cccc(-c3cnccn3)c2)cc1 [(1R)-1-(4-(methyloxy)phenyl)-N-((3-(2-pyrazinyl)phenyl)methyl)ethanamine] | ≤ 10 |
| COc1ccc(CN[C@H](C)c2ccccc2)cc1-c1cccnc1F [(1R)-N-((3-(2-fluoro-3-pyridinyl)-4-(methyloxy)phenyl)methyl)-1-phenylethanamine] | ≤ 10 |
| C[C@@H](NCc1ccc(I)c(-c2ccc(C(F)(F)F)cc2)c1)c1cccc2ccccc12 [(1R)-N-((6-iodo-4′-(trifluoromethyl)-1,1′-biphenyl-3-yl)methyl)-1-(1-naphthalenyl)ethanamine] | ≤ 10 |
| COc1ccc(CN[C@H](C)c2cccc3ccccc23)cc1-c1ccc2c(ccn2CC(N)=O)c1 [2-(5-(2-(methyloxy)-5-((((1R)-1-(1-naphthalenyl)ethyl)amino)methyl)phenyl)-1H-indol-1-yl)acetamide] | ≤ 10 |
| COc1ccc(CN[C@H](C)c2cccc3ccccc23)cc1-c1ccc2nn(C)cc2c1 [(1R)-N-((3-(2-methyl-2H-indazol-5-yl)-4-(methyloxy)phenyl)methyl)-1-(1-naphthalenyl)ethanamine] | ≤ 10 |
| CC(=O)Nc1ccc(-c2cccc(CN[C@H](C)c3ccccc3)c2)cn1 [Example 250, N-(5-(3-((((1R)-1-phenylethyl)amino)methyl)phenyl)-2-pyridinyl)acetamide] | ≤ 10 |
| C[C@@H](NCc1ccc(Cl)c(-c2ccc(OCC(F)(F)F)nc2)c1)c1cccc2ccccc12 [(1R)-N-((4-chloro-3-(6-((2,2,2-trifluoroethyl)oxy)-3-pyridinyl)phenyl)methyl)-1-(1-naphthalenyl)ethanamine] | ≤ 10 |
| COc1ccc(CN[C@H](C)c2ccccc2)cc1-n1cccc1 [(1R)-N-((4-(methyloxy)-3-(1H-pyrrol-1-yl)phenyl)methyl)-1-phenylethanamine] | ≤ 10 |
| CCOC(=O)c1ccc(-c2cc(CN[C@H](C)c3cccc4ccccc34)ccc2OC)cc1 [ethyl 2′-(methyloxy)-5′-((((1R)-1-(1-naphthalenyl)ethyl)amino)methyl)-1,1′-biphenyl-4-carboxylate] | ≤ 10 |
| Cc1ccc([C@@H](C)NCc2cccc(-c3ccoc3)c2)cc1 [Example 224, (1R)-N-((3-(3-furanyl)phenyl)methyl)-1-(4-methylphenyl)ethanamine] | ≤ 10 |
| COc1ccc(CN[C@H](C)c2cccc3ccccc23)cc1-c1nnc(C(F)(F)F)o1 [(1R)-N-((4-(methyloxy)-3-(5-(trifluoromethyl)-1,3,4-oxadiazol-2-yl)phenyl)methyl)-1-(1-naphthalenyl)ethanamine] | ≤ 10 |
| COc1ccc(CN[C@H](C)c2ccc(C)cc2)cc1-c1cccc(C#N)c1 [2′-(methyloxy)-5′-((((1R)-1-(4-methylphenyl)ethyl)amino)methyl)-1,1′-biphenyl-3-carbonitrile] | ≤ 10 |
| C[C@@H](NCc1ccc(Cl)c(-c2ccc(C(F)(F)F)cc2)c1)c1ccccc1 [(1R)-N-((6-chloro-4′-(trifluoromethyl)-1,1′-biphenyl-3-yl)methyl)-1-phenylethanamine] | ≤ 10 |
| COc1ccc([C@@H](C)NCc2cccc(-c3ccc(C)nc3)c2)cc1 [(1R)-1-(4-(methyloxy)phenyl)-N-((3-(6-methyl-3-yridinyl)phenyl)methyl)ethanamine] | ≤ 10 |
| COc1ccc([C@@H](C)NCc2cccc(-c3ccc4c(c3)OCO4)c2)cc1 [(1R)-N-((3-(1,3-benzodioxol-5-yl)phenyl)methyl)-1-(4-(methyloxy)phenyl)ethanamine] | ≤ 10 |
| COc1ccc(CN[C@H](C)c2cccc3ccccc23)cc1-c1ccc2c(c1)CCO2 [(1R)-N-((3-(2,3-dihydro-1-benzofuran-5-yl)-4-(methyloxy)phenyl)methyl)-1-(1-naphthalenyl)ethanamine] | ≤ 10 |
| COc1ccc(CN[C@H](C)c2ccccc2)cc1-c1ccc2nsnc2c1 [(1R)-N-((3-(2,1,3-benzothiadiazol-5-yl)-4-(methyloxy)phenyl)methyl)-1-phenylethanamine] | ≤ 10 |
| COc1ccc(CN[C@H](C)c2cccc3ccccc23)cc1-c1cnc2c(ccn2C)c1 [(1R)-N-((4-(methyloxy)-3-(1-methyl-1H-pyrrolo[2,3-b]pyridin-5-yl)phenyl)methyl)-1-(1-naphthalenyl)ethanamine] | ≤ 10 |
| COc1ccc(CN[C@H](C)c2cccc3ccccc23)cc1-c1cnccn1 [(1R)-N-((4-(methyloxy)-3-(2-pyrazinyl)phenyl)methyl)-1-(1-naphthalenyl)ethanamine] | ≤ 10 |
| COc1ccc(CN[C@H](C)c2ccccc2)cc1-c1ccc2ncccc2c1 [(1R)-N-((4-(methyloxy)-3-(6-quinolinyl)phenyl)methyl)-1-phenylethanamine] | ≤ 10 |

Continued, values first:

| EC50 [µM] | Compound |
| --- | --- |
| ≤ 10 | COc1cccc([C@@H](C)NCc2ccc(OC)c(-c3ccc(S(C)(=O)=O)cc3)c2)c1 [(1R)-N-((6-(methyloxy)-4′-(methylsulfonyl)-1,1′-biphenyl-3-yl)methyl)-1-(3-(methyloxy)phenyl)ethanamine] |
| ≤ 10 | CC[C@@H](NCc1ccc(OC)c(-c2ccc(OC)cc2)c1)c1ccccc1 [Example 450, (1R)-N-((4′,6-bis(methyloxy)-1,1′-biphenyl-3-yl)methyl)-1-phenyl-1-propanamine] |
| ≤ 10 | COc1ccc(CN[C@H](C)c2cccc(Cl)c2)cc1-c1ccccc1 [(1R)-1-(3-chlorophenyl)-N-((6-(methyloxy)-1,1′-biphenyl-3-yl)methyl)ethanamine] |
| ≤ 10 | COc1cccc([C@@H](C)NCc2ccc(OC)c(-c3ccc4c(c3)CCO4)c2)c1 [(1R)-N-((3-(2,3-dihydro-1-benzofuran-5-yl)-4-(methyloxy)phenyl)methyl)-1-(3-(methyloxy)phenyl)ethanamine] |
| ≤ 10 | COc1ccc([C@@H](C)NCc2ccc(OC)c(-c3cncnc3)c2)cc1 [(1R)-1-(4-(methyloxy)phenyl)-N-((4-(methyloxy)-3-(5-pyrimidinyl)phenyl)methyl)ethanamine] |
| ≤ 10 | COc1ccnc(-c2cc(CN[C@H](C)c3ccccc3)ccc2OC)c1 [(1R)-N-((4-(methyloxy)-3-(4-(methyloxy)-2-pyridinyl)phenyl)methyl)-1-phenylethanamine] |
| ≤ 10 | COc1cccc([C@@H](C)NCc2cccc(-c3ccc(C)nc3)c2)c1 [(1R)-1-(3-(methyloxy)phenyl)-N-((3-(6-methyl-3yridinyl)phenyl)methyl)ethanamine] |
| ≤ 10 | COc1cccc([C@@H](C)NCc2ccc(OC)c(-c3ccccc3)c2)c1 [(1R)-N-((6-(methyloxy)-1,1′-biphenyl-3-yl)methyl)-1-(3-(methyloxy)phenyl)ethanamine] |
| ≤ 10 | COc1ccc(CN[C@H](C)c2ccc3ccccc3c2)cc1-c1ccsc1 [(1R)-N-((4-(methyloxy)-3-(3-thienyl)phenyl)methyl)-1-(2-naphthalenyl)ethanamine] |
| ≤ 10 | COc1ccc(CN[C@H](C)c2ccccc2)cc1-c1ccc2ccccc2c1 [(1R)-N-((4-(methyloxy)-3-(2-naphthalenyl)phenyl)methyl)-1-phenylethanamine] |
| ≤ 10 | COc1cccc([C@@H](C)NCc2ccc(OC)c(-c3ccc(OC)nc3)c2)c1 [(1R)-N-((4-(methyloxy)-3-(6-(methyloxy)-3-pyridinyl)phenyl)methyl)-1-(3-(methyloxy)phenyl)ethanamine] |
